Reference: US20040023884A1, “Biologically active peptides from functional domains of bactericidal/permeability-increasing protein and uses thereof” (priority 1993, published 2004)
Ends that are not written are not given here.

How the values were obtained:
[1] = 3H-heparin binding assay (affinity and capacity); conditions: for Heparin Capacity: heparin bound at saturation; for Kd: read-out: Heparin Affinity
Outline: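 Peptide fragments were bound to PVDF-membrane wells and incubated with 3H-heparin in blocking buffer for 1 h at 4 °C. After washing, bound radioactivity was quantified by liquid scintillation counting, with BSA background subtracted; rBPI23 served as positive control.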

E. coli J5 (rough) = test: Broth antibacterial assay, E. coli J5; assay type: cell-based
Method: (§1) In additional experiments, broth antibacterial assays were conducted to further determine the bactericidal activity of certain of the BPI peptides. Specifically, either E. coli J5 (rough) or E. coli 0111:B4 (smooth) bacteria were selected from single colonies on agar plates and used to inoculate 5 mL of Mueller Hinton broth and incubated overnight at 37° C. with shaking. The overnight culture was diluted (˜1:50) into 5 mL fresh broth and incubated at 37° C. to log phase (˜3 hours). Bacteria were pelleted for 5 minutes at 3000 rpm (1500×g). Bacterial pellets were resuspended in 5 mL PBS and diluted to 2×10^6 cells/mL in the Mueller Hinton broth (wherein 1 OD570 unit equals 1.25×10^9 CFU/mL). The BPI functional domain peptides to be tested were diluted to 200 μg/mL in broth and serially diluted 2-fold in 96 well culture plates (100 μL volume). All items were at 2-fold final concentration and experiments were conducted in triplicate. Bacteria were added at 100 μL/well and the plates were incubated on a shaker at 37° C. for a 20 hour period. The plates were then read on an ELISA plate multiple reader at 590 nm. One of the triplicate wells from each peptide concentration was selected for colony forming unit (CFU) determination. A 30 μL aliquot was added to 270 μL of PBS and further ten-fold serial dilutions were performed. Then a 50 μL aliquot was plated on tryptic soy agar and incubated overnight. Colonies were counted and final bacterial concentrations determined. The results of these assays are depicted in FIGS. 9e (for E. coli J5) and 9f (for E. coli 0111:B4).

[2] = system: rough mutant E. coli J5 bacteria; test: Radial diffusion bactericidal assay, E. coli J5; assay type: cell-based; conditions: radial diffusion; for bactericidal activity (in words): E. coli J5; for pmol added to well to achieve a 30 mm^2 bactericidal zone, E. coli J5: PROBIT analysis, E. coli J5 (rough)
Outline: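 Wells received 5 or 10 μL of BPI fragment, pre-incubated 3 h at 37 °C. The underlayer agarose carried washed log-phase organisms at 4×10^6 CFU/mL.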

E. coli 0111:B4 (smooth) = test: Broth antibacterial assay, E. coli 0111:B4; assay type: cell-based
Method: as §1

[3] = system: E. coli 0111:B4 (smooth) bacteria; test: Radial diffusion bactericidal assay, E. coli 0111:B4; assay type: cell-based; conditions: radial diffusion; for bactericidal activity (in words): E. coli 0111:B4; for pmol added to well to achieve a 30 mm^2 bactericidal zone, E. coli O111:B4: PROBIT analysis, E. coli O111:B4 (smooth)
[4] = system: multi-resistant strain E. coli 19536; test: Radial diffusion bactericidal assay, multi-antibiotic resistant E. coli 19536; assay type: cell-based
Method: (§2) These studies were conducted substantially following the procedures used in Example 2.
In order to test the bactericidal activity of BPI peptides against multi-antibiotic resistant E. coli, a multi-resistant strain E. coli 19536 (ampR 16 μg/mL; ceftazidimeR>16 μg/mL; ceftriazoneR>16 μg/mL) was tested. This strain is a clinical isolate obtained from the Baxter Microscan® library (Sacramento, Calif.). An overnight culture of E. coli 19536 was tested as described in Example 2 and part A above. Test BPI peptides were 2-fold serially diluted in D-PBS starting at about 1 mg/mL.

[5] = system: Klebsiella pneumoniae 19645; test: Radial diffusion bactericidal assay, antibiotic resistant Klebsiella pneumoniae 19645; assay type: cell-based
Method: as §2
In order to test the bactericidal activity of BPI peptides on antibiotic resistant strains of Klebsiella pneumoniae, the multi-resistant clinically isolated strain 19645 was tested as in Example 2 and above. […] This strain was obtained from the Baxter Microscan® library (Sacramento, Calif.). An overnight culture of Klebsiella pneumoniae 19645 and a non-resistant strain (ATCC 29011) were diluted 1:50 into fresh tryptic soy broth and incubated for 3 hours at 37° C. to attain log phase. The overnight cultures were tested as described in Example 2 and part A above.

RAW 264.7 cells = test: LPS neutralization cellular proliferation assay, RAW 264.7 cells; assay type: cell-based, mouse
Outline: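 Mouse RAW 264.7 cells were primed 24 h with 50U/mL mouse γ-interferon, then exposed about 15 h to E. coli O113 LPS in serum-free RPMI with or without BPI peptides at 25 ng/mL–50 μg/mL. Proliferation was quantified by [^3H]-thymidine uptake, 1 μCi/well, added at 5 h.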

[6] = Heparin binding by tryptophan fluorescence quenching
Source text: (§3) The naturally-occurring amino acid tryptophan can emit light (i.e., it fluoresces) having a wavelength between 300 and 400 nm after excitation with light having a wavelength of between about 280 nm and 290 nm, preferably 285 nm. The amount of emitted light produced by such fluorescence is known to be affected by the local environment, including pH and buffer conditions, as well as binding interactions between proteins and other molecules. Some BPI functional domain peptides derived from domains II and III contain tryptophan residues, and tryptophan fluorescence was used to assay binding interactions between the BPI functional domain peptides of the invention and LPS or heparin.
(§4) Tryptophan fluorescence of the BPI functional domain peptides of the invention was determined in the presence or absence of LPS or heparin using a SPEX Fluorolog fluorimeter. Samples were excited with 285 nm light using a 0.25 nm slitwidth. Emission wavelengths were scanned between 300-400 nm using a 1.25 nm slitwidth. Data were accumulated as the average of three determinations performed over an approximately 5 min time span. Samples were maintained at 25° C. or 37° C. during the course of the experiments using a circulating water bath. Crab endotoxin binding protein (CEBP), a protein wherein the intrinsic fluorescence of tryptophan residues is affected by binding to LPS, was used as a positive control. (See Wainwright et al., 1990, Cellular and Molecular Aspects of Endotoxin Reactions, Nowotny et al., eds., Elsevier Science Publishing B.V., The Netherlands, pp. 315-325).
(§5) Kd values were determined by Scatchard-type Stern-Volmer plots of the quenching data as the negative inverse of the slope of such plots. Comparing the data for BPI.10, BPI.46 and BPI.47, it is seen that as the Kd decreased (indicating an increase in avidity for LPS), the percent fluorescence quenching increased. The differences between these peptides include replacement of basic and polar amino acid residues with non-polar residues in […] as compared with BPI.10. In contrast, as the Kd of heparin binding decreased, a corresponding increase in the percentage of fluorescence quenching was not detected.

[7] = LPS binding by tryptophan fluorescence quenching
Source text: as §3, §4, §5

Staphylococcus aureus = test: Radial diffusion bactericidal assay, Staphylococcus aureus; assay type: cell-based; conditions: radial diffusion; PROBIT analysis; S. aureus
C. albicans = test: Radial diffusion fungicidal assay, Candida albicans; assay type: cell-based; conditions: radial diffusion

Sequence	Heparin Capacity [1]	Kd [1]	bactericidal activity (in words) (E. coli J5 (rough))	bactericidal activity (in words) [2]	pmol added to well to achieve a 30 mm^2 bactericidal zone, E. coli J5 [2]	bactericidal activity (in words) (E. coli 0111:B4 (smooth))	bactericidal activity (in words) [3]	pmol added to well to achieve a 30 mm^2 bactericidal zone, E. coli O111:B4 [3]	heparin binding capacity (in words) [1]	bactericidal activity (in words) [4]	bactericidal activity (in words) [5]	EC50 (peptide concentration at which the growth inhibitory effect of LPS was reversed by 50%) (RAW 264.7 cells)	IC50 (peptide concentration at which RAW cell growth was inhibited by 50%) (RAW 264.7 cells)	Quenching Heparin [6]	Kd ([6]; Stern-Volmer plots)	Quenching LPS [7]	Kd ([7]; Stern-Volmer plots)	pmol added to well to achieve a 30 mm^2 bactericidal zone, S. aureus (Staphylococcus aureus)	C. albicans: pmol required for 30 mm^2 zone (C. albicans)
KRFLKKWKAQKRFLK [BPI.9]	212.5 ng	1140 nM	significant bactericidal activity	exhibited bactericidal activity	476.60 pmol	significant bactericidal activity	exhibited bactericidal activity	5,337.50 pmol											
KWKAAARFLKKWKAAARFLKKWKAAARFLK [BPI.69]	450.8 ng	967 nM		highly bactericidal	56.68 pmol			244.07 pmol	extremely high heparin capacity	activity against multi-antibiotic resistant E. coli	active against antibiotic resistant Klebsiella	0.11 ± 0.07 µg/mL	2.4 ± 0.3 µg/mL	42%	400 nM	72%	58 nM	1,057.56 pmol	
QKRFLKKWKAQKRFLKKWKAQKRFLK [BPI.10.2]			significant bactericidal activity	exhibited bactericidal activity		significant bactericidal activity	exhibited bactericidal activity												
IKISGKWKAFFRFLK [BPI.88]	352.8 ng	1630 nM			70.32 pmol			540.15 pmol		activity against multi-antibiotic resistant E. coli		>50 µg/mL	6.2 ± 7.5 µg/mL					9,051.04 pmol	
IKISGKWKAQKRFLKKSKVGWLIQLFHKK [BPI.63]	305.1 ng	600 nM		highly bactericidal	86.94 pmol			511.61 pmol	extremely high heparin capacity	activity against multi-antibiotic resistant E. coli	active against antibiotic resistant Klebsiella	0.08 ± 0.02 µg/mL	7.1 ± 0.02 µg/mL					2,101.84 pmol	>1006.34 pmol
KRFLKKWKAQKRFLKKWKAQKRFLK [BPI.10.1]			significant bactericidal activity	exhibited bactericidal activity		significant bactericidal activity	exhibited bactericidal activity												
